Measured values taken from ChEMBL document CHEMBL6127079, “Design and synthesis of spiro[pyrrolidine-3,3'-quinoline]-2,2'-dione derivatives as novel antifungal agents targeting chitin synthase” (Eur J Med Chem, 2024).
≈ marks a conversion by molar mass, not a printed value.

Experiments:
Candida tropicalis = test: Inhibition of chitin synthase extracted from Candida tropicalis ATCC 750 using UDP-GlcNAc as substrate assessed as inhibition rate at 300 ug/ml by TMB based microplate analyzer relative to control; details: dose 300.0 µg/ml
[1] = Inhibition of chitin synthase extracted from Candida tropicalis ATCC 750 using UDP-GlcNAc as substrate assessed as inhibition rate by TMB based microplate analyzer relative to control
Candida albicans [2] = test: Antifungal activity against Candida albicans ATCC 76615 assessed as inhibition of growth incubated for 24 hrs by two-fold serial dilution method; format: functional
Aspergillus flavus [3] = test: Antifungal activity against Aspergillus flavus ATCC 16870 assessed as inhibition of growth incubated for 24 hrs by two-fold serial dilution method; format: functional
Aspergillus fumigatus [4] = test: Antifungal activity against Aspergillus fumigatus GIMCC 3.19 assessed as inhibition of growth incubated for 24 hrs by two-fold serial dilution method; format: functional
Cryptococcus neoformans [5] = test: Antifungal activity against Cryptococcus neoformans ATCC 32719 assessed as inhibition of growth incubated for 24 hrs by two-fold serial dilution method; format: functional
Candida albicans [6] = test: Antifungal activity against drug-resistant Candida albicans ATCC 76615 assessed as inhibition of cell wall synthesis in presence of sorbitol incubated for 24 hrs; format: functional
Aspergillus fumigatus [7] = test: Antifungal activity against drug-resistant Aspergillus fumigatus GIMCC 3.19 assessed as inhibition of cell wall synthesis in presence of sorbitol incubated for 24 hrs; format: functional
Cryptococcus neoformans [8] = test: Antifungal activity against drug-resistant Cryptococcus neoformans ATCC 32719 assessed as inhibition of cell wall synthesis in presence of sorbitol incubated for 24 hrs; format: functional
Candida albicans [9] = test: Antifungal activity against fluconazole-resistant Candida albicans ATCC 76615 assessed as inhibition of fungal growth incubated for 24 to 72 hrs; format: functional; details: time 24-72 hrs
Aspergillus flavus [10] = test: Antifungal activity against fluconazole-resistant Aspergillus flavus ATCC 16870 assessed as inhibition of fungal growth incubated for 24 to 72 hrs; format: functional; details: time 24-72 hrs
Aspergillus fumigatus [11] = test: Antifungal activity against fluconazole-resistant Aspergillus fumigatus GIMCC 3.19 assessed as inhibition of fungal growth incubated for 24 to 72 hrs; format: functional; details: time 24-72 hrs
Cryptococcus neoformans [12] = test: Antifungal activity against fluconazole-resistant Cryptococcus neoformans ATCC 32719 assessed as inhibition of fungal growth incubated for 24 to 72 hrs; format: functional; details: time 24-72 hrs
Candida albicans [13] = test: Antifungal activity against micafungin-resistant Candida albicans ATCC 76615 assessed as inhibition of fungal growth incubated for 24 to 72 hrs; format: functional; details: time 24-72 hrs
Candida albicans [14] = test: Antifungal activity against Candida albicans ATCC 76615 incubated for 24 hrs by half broth dilution based checkerboard method; format: functional
Aspergillus flavus [15] = test: Antifungal activity against Aspergillus flavus ATCC 16870 incubated for 24 hrs by half broth dilution based checkerboard method; format: functional
Aspergillus fumigatus [16] = test: Antifungal activity against Aspergillus fumigatus GIMCC 3.19 incubated for 24 hrs by half broth dilution based checkerboard method; format: functional
Cryptococcus neoformans [17] = test: Antifungal activity against Cryptococcus neoformans ATCC 32719 incubated for 24 hrs by half broth dilution based checkerboard method; format: functional
Candida albicans [18] = test: Antifungal activity against Candida albicans ATCC 76615 assessed as fluconazole MIC incubated for 24 hrs in presence of fluconazole by half broth dilution based checkerboard method; format: functional
Aspergillus flavus [19] = test: Antifungal activity against Aspergillus flavus ATCC 16870 assessed as fluconazole MIC incubated for 24 hrs in presence of fluconazole by half broth dilution based checkerboard method; format: functional
Aspergillus fumigatus [20] = test: Antifungal activity against Aspergillus fumigatus GIMCC 3.19 assessed as fluconazole MIC incubated for 24 hrs in presence of fluconazole by half broth dilution based checkerboard method; format: functional
Cryptococcus neoformans [21] = test: Antifungal activity against Cryptococcus neoformans ATCC 32719 assessed as fluconazole MIC incubated for 24 hrs in presence of fluconazole by half broth dilution based checkerboard method; format: functional
Aspergillus fumigatus [22] = test: Synergistic antifungal activity against Aspergillus fumigatus GIMCC 3.19 assessed as fractional inhibitory concentration index in presence of fluconazole incubated for 24 hrs by half broth dilution based checkerboard method; format: functional
Candida albicans [23] = test: Synergistic antifungal activity against Candida albicans ATCC 76615 assessed as fractional inhibitory concentration index in presence of fluconazole incubated for 24 hrs by half broth dilution based checkerboard method; format: functional
Aspergillus flavus [24] = test: Synergistic antifungal activity against Aspergillus flavus ATCC 16870 assessed as fractional inhibitory concentration index in presence of fluconazole incubated for 24 hrs by half broth dilution based checkerboard method; format: functional
Cryptococcus neoformans [25] = test: Synergistic antifungal activity against Cryptococcus neoformans ATCC 32719 assessed as fractional inhibitory concentration index in presence of fluconazole incubated for 24 hrs by half broth dilution based checkerboard method; format: functional
Candida albicans [26] = test: Antifungal activity against Candida albicans ATCC 76615 assessed as Polyoxin B MIC incubated for 24 hrs in presence of fluconazole by half broth dilution based checkerboard method; format: functional
Aspergillus flavus [27] = test: Antifungal activity against Aspergillus flavus ATCC 16870 assessed as Polyoxin B MIC incubated for 24 hrs in presence of fluconazole by half broth dilution based checkerboard method; format: functional
Aspergillus fumigatus [28] = test: Antifungal activity against Aspergillus fumigatus GIMCC 3.19 assessed as Polyoxin B MIC incubated for 24 hrs in presence of fluconazole by half broth dilution based checkerboard method; format: functional
Cryptococcus neoformans [29] = test: Antifungal activity against Cryptococcus neoformans ATCC 32719 assessed as Polyoxin B MIC incubated for 24 hrs in presence of fluconazole by half broth dilution based checkerboard method; format: functional
Candida albicans [30] = test: Synergistic antifungal activity against Candida albicans ATCC 76615 assessed as fractional inhibitory concentration index in presence of Polyoxin B incubated for 24 hrs by half broth dilution based checkerboard method; format: functional
Aspergillus flavus [31] = test: Synergistic antifungal activity against Aspergillus flavus ATCC 16870 assessed as fractional inhibitory concentration index in presence of Polyoxin B incubated for 24 hrs by half broth dilution based checkerboard method; format: functional
Aspergillus fumigatus [32] = test: Synergistic antifungal activity against Aspergillus fumigatus GIMCC 3.19 assessed as fractional inhibitory concentration index in presence of Polyoxin B incubated for 24 hrs by half broth dilution based checkerboard method; format: functional
Cryptococcus neoformans [33] = test: Synergistic antifungal activity against Cryptococcus neoformans ATCC 32719 assessed as fractional inhibitory concentration index in presence of Polyoxin B incubated for 24 hrs by half broth dilution based checkerboard method; format: functional
Aspergillus flavus [34] = test: Antifungal activity against drug-resistant Aspergillus flavus ATCC 16870 assessed as inhibition of cell wall synthesis in presence of sorbitol incubated for 24 hrs; format: functional

Row | SMILES | inhibition (Candida tropicalis) [%] | IC50 [1] [µM] | MIC (Candida albicans [2]) [µg/mL] | MIC (Aspergillus flavus [3]) [µg/mL] | MIC (Aspergillus fumigatus [4]) [µg/mL] | MIC (Cryptococcus neoformans [5]) [µg/mL] | MIC (Candida albicans [6]) [µg/mL] | MIC (Aspergillus fumigatus [7]) [µg/mL] | MIC (Cryptococcus neoformans [8]) [µg/mL] | MIC (Candida albicans [9]) [µg/mL] | MIC (Aspergillus flavus [10]) [µg/mL] | MIC (Aspergillus fumigatus [11]) [µg/mL] | MIC (Cryptococcus neoformans [12]) [µg/mL] | MIC (Candida albicans [13]) [µg/mL] | MIC (Candida albicans [14]) [µg/mL] | MIC (Aspergillus flavus [15]) [µg/mL] | MIC (Aspergillus fumigatus [16]) [µg/mL] | MIC (Cryptococcus neoformans [17]) [µg/mL] | MIC (Candida albicans [18]) [µg/mL] | MIC (Aspergillus flavus [19]) [µg/mL] | also measured
1 | O=C(/C=C/C(=O)Nc1ccc2c(c1)NC(=O)C1(CCNC1=O)C2)Nc1ccc(Br)cc1 (racemic) | 72.7 | 179 | 16 (≈ 33.1 µM) | 16 (≈ 33.1 µM) | 32 (≈ 66.2 µM) | 16 (≈ 33.1 µM) | 128 | 256 | 256 | 64 (≈ 132 µM) | 64 (≈ 132 µM) | 64 (≈ 132 µM) | 32 (≈ 66.2 µM) | 32 (≈ 66.2 µM) | 4 | 8 | 8 | 4 | 4 | 4 | MIC (Aspergillus fumigatus [20]): 2 µg/mL; MIC (Cryptococcus neoformans [21]): 4 µg/mL; fractional inhibitory concentration index (FICI) (Aspergillus fumigatus [22]): 0.75; fractional inhibitory concentration index (FICI) (Candida albicans [23]): 0.75; fractional inhibitory concentration index (FICI) (Aspergillus flavus [24]): 1.5; fractional inhibitory concentration index (FICI) (Cryptococcus neoformans [25]): 1; MIC (Candida albicans [26]): 8 µg/mL; MIC (Aspergillus flavus [27]): 8 µg/mL; MIC (Aspergillus fumigatus [28]): 16 µg/mL; MIC (Cryptococcus neoformans [29]): 4 µg/mL; fractional inhibitory concentration index (FICI) (Candida albicans [30]): 0.75; fractional inhibitory concentration index (FICI) (Aspergillus flavus [31]): 1.5; fractional inhibitory concentration index (FICI) (Aspergillus fumigatus [32]): 0.75; fractional inhibitory concentration index (FICI) (Cryptococcus neoformans [33]): 1
2 | O=C(CN1CCC(C(=O)Nc2cccc(Br)c2)CC1)Nc1ccc2c(c1)NC(=O)C1(CCNC1=O)C2 (racemic) | 80.6 | 101 | 16 (≈ 28.9 µM) | 32 (≈ 57.7 µM) | 32 (≈ 57.7 µM) | 8 (≈ 14.4 µM) | 128 | 256 | 256 | 32 (≈ 57.7 µM) | 32 (≈ 57.7 µM) | 64 (≈ 115 µM) | 32 (≈ 57.7 µM) | 64 (≈ 115 µM) | 16 | 32 | 32 | 8 | 1 | 1.25 | MIC (Aspergillus flavus [34]): 256 µg/mL; MIC (Aspergillus fumigatus [20]): 1 µg/mL; MIC (Cryptococcus neoformans [21]): 0.75 µg/mL; fractional inhibitory concentration index (FICI) (Aspergillus fumigatus [22]): 0.75; fractional inhibitory concentration index (FICI) (Candida albicans [23]): 1.25; fractional inhibitory concentration index (FICI) (Aspergillus flavus [24]): 0.625; fractional inhibitory concentration index (FICI) (Cryptococcus neoformans [25]): 1.5; MIC (Candida albicans [26]): 16 µg/mL; MIC (Aspergillus flavus [27]): 32 µg/mL; MIC (Aspergillus fumigatus [28]): 32 µg/mL; MIC (Cryptococcus neoformans [29]): 8 µg/mL; fractional inhibitory concentration index (FICI) (Candida albicans [30]): 1.5; fractional inhibitory concentration index (FICI) (Aspergillus flavus [31]): 1.25; fractional inhibitory concentration index (FICI) (Aspergillus fumigatus [32]): 0.75; fractional inhibitory concentration index (FICI) (Cryptococcus neoformans [33]): 1
3 | Cc1ccc(NC(=O)/C=C/C(=O)Nc2ccc3c(c2)NC(=O)C2(CCNC2=O)C3)cc1 (racemic) | 71.4 | 201 | 16 (≈ 38.2 µM) | 8 (≈ 19.1 µM) | 16 (≈ 38.2 µM) | 32 (≈ 76.5 µM) | 128 | 128 | 256 | 64 (≈ 153 µM) | 32 (≈ 76.5 µM) | 32 (≈ 76.5 µM) | 64 (≈ 153 µM) | 64 (≈ 153 µM) | 8 | 4 | 8 | 16 | 4 | 4 | MIC (Aspergillus flavus [34]): 64 µg/mL; MIC (Aspergillus fumigatus [20]): 4 µg/mL; MIC (Cryptococcus neoformans [21]): 8 µg/mL; fractional inhibitory concentration index (FICI) (Aspergillus fumigatus [22]): 1.5; fractional inhibitory concentration index (FICI) (Candida albicans [23]): 1; fractional inhibitory concentration index (FICI) (Aspergillus flavus [24]): 2; fractional inhibitory concentration index (FICI) (Cryptococcus neoformans [25]): 1.5; MIC (Candida albicans [26]): 8 µg/mL; MIC (Aspergillus flavus [27]): 4 µg/mL; MIC (Aspergillus fumigatus [28]): 16 µg/mL; MIC (Cryptococcus neoformans [29]): 16 µg/mL; fractional inhibitory concentration index (FICI) (Candida albicans [30]): 1; fractional inhibitory concentration index (FICI) (Aspergillus flavus [31]): 2; fractional inhibitory concentration index (FICI) (Aspergillus fumigatus [32]): 1.5; fractional inhibitory concentration index (FICI) (Cryptococcus neoformans [33]): 1.5
